According to patent EP1137386B1, “USE OF TRICLOSAN AS AN AN[…]” (Jawaharlal Nehru Centre For Advanced Scientific Research, priority 1999, dated 2001):

How the values were obtained:
Plasmodium falciparum = assay: In vitro effect on growth of Plasmodium falciparum (parasitemia and morphology in Giemsa stained smears); format: cell-based; conditions: P. falciparum cultures in human erythrocytes
Method: Plasmodium falciparum cultures with 5-6% parasitemia are diluted with washed 50% suspension of red blood cells and CRPMI so that the initial parasitemia becomes 1% and hematocrit 2%. 1.5 millilitres of this diluted infected cell suspension is placed in flat bottom vials, which are kept in a desiccator equipped with a stopcock. A candle is lit and the cover of the desiccator is put on with the stopcock open. When the candle goes out, the stopcock is closed. This is a simple but effective way to produce an atmosphere of low O2(1-5%) and high CO2 content (7%). Fresh medium is provided daily by withdrawing the supernatant and supplementing cells with 1.25 millilitres of CRPMI. Fresh erythrocytes are added every third or fourth day when the parasitemia reaches 6-8%, bringing it down to 1%. In cultures, all stages of the asexual cycle are seen at any one time, since the cultures have lost some of the synchronicity characteristic of P. falciparum in man. Delicate rings with two chromatin dots are common. Schizonts or segmenters show 15-18 merozoites, the same numbers seen in material from human infections.
This is done by observing the stained smear of infected red blood cells under the microscope in oil immersion. The following stages of Plasmodium falciparum with their characteristic features can be seen. These stages are as follows: • 1. […]

P. falciparum = assay: Uptake of [35S] methionine as an index of inhibition of parasite growth; format: cell-based; conditions: P. falciparum in culture, different concentrations of triclosan (Fig. 5)
Method: Uptake of [^35S] methionine, NEN, DuPont, (specific activity 1175 Ci/mmol) is used as an index of parasite growth. The final isotope concentration to be added in each well is 100 µCi/ml culture. Before an hour of total incubation period (24, 48, or 72 h) 20 µl of the isotope in culture medium is added to each well and incubated for an additional 1 hr. After incubation, contents of the well are pipetted into microcentrifuge tubes kept on ice. The samples are spun at 3000 g for 10 sec. The supernatant is discarded and the pellet washed twice in 1.0 ml of 0.9% NaCl. The pellet is lysed with 50 µl distilled water and spotted onto Whatman No. 3 discs (presoaked in 10% TCA with cold methionine and dried). After spotting, these discs are allowed to dry and then they are treated with hot TCA, cold TCA (10% throughout), alcohol ether (2:1, v/v) and finally with ether. […] The discs are air dried after ether treatment, and counted in optiphase 'Hisafe' scintillation fluid (Wallac Scintillation Products, U.K.) in a Wallac β-counter (Model 1409, Finland).
The drug and parasites were aliquoted in required number of rows of wells in 96 well titre plates as described in example 1. […] After ether treatment, the discs were air dried, placed in scintillation fluid phase III from Wallac and counted in Wallac β-counter.

[1] = tested on: cell free system for the synthesis of fatty acids of Plasmodium falciparum; assay: Incorporation of [14C] malonyl-CoA in fatty acids in cell free system, scintillation counting and TLC/autoradiography; format: biochemical
Method: For cell free fatty acid synthesis in E.Coli, See Δ P.W. Majerus et al. (1968), Methods in Enzymol, 14, 43-52.
The pellet was washed four to five times with cold phosphate buffer saline and after washing, the pellet was suspended in 3.0 ml of phosphate buffer saline and equal volume of 0.15% saponin was added to isolate free parasites. (See specific embodiments). The late ring stage (trophozoites) of the parasites thus isolated were washed once thoroughly with PBS and the cells suspended in 0.4 ml of 1 mM potassium phosphate buffer pH 7.0 and sonicated for 15 sec. The cell lysate (2.0 mg cell extract protein) thus prepared was mixed with 200 µl of 200 mM of potassium phosphate buffer pH 7.0 containing 70 uM acetyl CoA, 8 mM glucose-6-phosphate, 3 mM each of NADH and NADPH, 0.4 mM EDTA, 4 units of glucose-6-phosphate dehydrogenase, 45 uM [^14C]malonyl-CoA (specific activity 54.2 mCi/mmol, DuPont) and 3 mM dithiothreitol (DTT). To this 200 µg of DTT reduced acyl carrier protein (ACP) from E. coli (Sigma) in 25 µl of 75 mM phosphate buffer was added. The reaction mixture was incubated for 30 min at 37°C. […] A part (25 µl) of the sample in methanol was counted by scintillation counting to determine also the extent of incorporation of [^14C] malonyl-CoA in fatty acids both in the presence and absence of Triclosan.

Plasmodium berghei = assay: Protection of mice against malaria after administration in vivo (P. berghei infected mice); parameters: species or system Swiss mice; conditions: for mice survived till day 14 / mice survived till 14th day: subcutaneously in DMSO, day 1 of infection and next 6 days, P. berghei infected male swiss mice
Text: The present invention involves the use of triclosan for the manufacture of an antimalarial agent to inhibit the growth of the murine malaria parasite Plasmodium berghei as well. The effect of various concentration of triclosan in controlling parasitemia is monitored in Plasmodium berghei infected mice. • 1. Plasmodium berghei infection: P. berghei parasite is maintained in Swiss male mice through serial blood passage. • 2. Triclosan treatment: Swiss mice (5 animals/group) are infected on day zero with about 10^6 infected red blood cells (IRBC). The animals are kept under observation to record parasitemia and mortality. Parasitemia is determined by counting 10^3 red cells in a thin blood smear stained with Giesma and expressed as number of parasitized cells/100 erythrocytes. The animals given only dimethylsulfoxide (DMSO) are used as controls and referred to as untreated animals. Level of parasitemia is >1% on the first day of triclosan treatment. Parasitemia is monitored every 24 hrs, for 7-8 days.
Male swiss mice were infected with P. berghei. The animals were kept under observation and parasitemia was recorded daily. Triclosan (0.8, 1.6, 3.0, 8.0, 14.0 and 28.0 mg/kg body weight of mice respectively) in DMSO was given subcutaneously on day 1 of infection when parasitemia was>1% and subsequently for the next 6 days. Experiments with triclosan were conducted with a group of five animals, each for the dosages mentioned above. DMSO was given to control animals (6) and were referred to as untreated animals. Parasitemia and mortality were recorded till the untreated mice died. Typically all the six mice in the control group died by day 9 of infection while 3, 3 and 4 mice out of 5 treated with 0.8, 1.6 and 3.0 mg triclosan/kg (body weight), survived till day 14. All the mice (5 out of 5) survived till 14th day when treated with 8.0, 14.0 and 28.0 mg triclosan/kg (body weight).

## Oc1cc(Cl)ccc1Oc1ccc(Cl)cc1Cl [triclosan, 2,4,4'-trichloro-2'-hydroxydiphenyl ether]
Plasmodium falciparum
  growth of the human malaria parasite in vitro: inhibits the growth of the human malaria parasite in vitro in a very potent manner
P. falciparum
  inhibition of protein synthesis, uptake of (^35S) methionine: reduced uptake of (^35S) methionine
[1]; cell free system, 0.15, 0.225, 0.3, 0.6 and 1.2 µg of triclosan, 30 min at 37°C
  incorporation of [^14C] malonyl CoA in fatty acids: inhibits incorporation of [^14C] malonyl CoA in fatty acids
[1]; cell free system, TLC with autoradiography
  longer chain fatty acids synthesized (elongation reaction): progressive decline in the longer chain fatty acids
Plasmodium berghei; 0.8 mg/kg body weight
  mice survived till day 14: 3 mice out of 5
Plasmodium berghei; 1.6 mg/kg body weight
  mice survived till day 14: 3 mice out of 5
Plasmodium berghei; 3.0 mg/kg body weight
  mice survived till day 14: 4 mice out of 5
Plasmodium berghei; 8.0 mg/kg body weight
  mice survived till 14th day: 5 out of 5
Plasmodium berghei; 14.0 mg/kg body weight
  mice survived till 14th day: 5 out of 5
Plasmodium berghei; 28.0 mg/kg body weight
  mice survived till 14th day: 5 out of 5
Plasmodium berghei; P. berghei infected Swiss mice, untreated animals die by 8 days after the infection
  mortality: delayed mortality is observed in treated animals depending on dose
Plasmodium berghei; injection in mice infected with P. berghei
  parasitemia: able to curtail the parasitemia
